Measurements as given in article PMC9067978, “Design, synthesis, and molecular docking studies of novel pomalidomide-based PROTACs as potential anti-cancer agents targeting EGFR^WT and EGFR^T790M” (Journal of Enzyme Inhibition and Medicinal Chemistry, 2022).
Entries after “also recorded” stand apart in the source; their conditions may differ.

Tests used:
[1] = system: A549; test: MTT anti-proliferative assay, A549; conditions: Homo sapiens, A549, read-out: IC50 A549
Method: (§5) The anti-proliferative activity was quantified in the following way. At a density of 3–8 × 10^3 cells per well, human cancer cell lines were introduced to 96-well plates. The wells were then incubated at 37 °C for 12 hours in 5% CO2 incubator. To determine the DMSO content, the culture media was swapped with 0.1 ml of fresh medium containing graded amounts of the test compounds for each well. Incubation time for the wells was two days. The cells were then cultured in 100 µl MTT solution (5 µg ml^−1) for another 4 hours in each well.
(§6) The absorbance of each well was measured at 490 nm with an automated ELISA reader system (TECAN, CHE) after MTT-formazan crystals were dissolved in 100 µl of DMSO. The IC50 values were calculated using nonlinear regression fitting models (Graph Pad, Prism Version 5). The results were expressed as means ± SD and were based on the average of three separate, duplicate trials.

[2] = system: MCF-7; test: MTT anti-proliferative assay, MCF-7; conditions: Homo sapiens, MCF7, read-out: IC50 MCF-7
Method: as §5, §6

[3] = system: HCT-116; test: MTT anti-proliferative assay, HCT-116; conditions: Homo sapiens, HCT-116, read-out: IC50 HCT-116
Method: as §5, §6

[4] = system: HepG-2; test: MTT anti-proliferative assay, HepG-2; conditions: Homo sapiens, HepG2, read-out: IC50 HepG-2
Method: as §5, §6

[5] = molecular target: T1, EGFR^WT (Homo sapiens, UniProt P00533); test: EGFR^WT kinase inhibitory assay (HTRF); format: biochemical; conditions: ATP 1.65 µM, mean ± S.D of three experiments
T1 construct: purchased Sigma
Method: (§1) This test used HTRF[44] assay with EGFR^WT and EGFR^T790M (Sigma). For the first 5 minutes, the evaluated compounds were incubated with EGFR^WT and/or EGFR^T790M and their substrates in the enzymatic buffer. […] The assay was performed at 37 °C for 30 minutes. The addition of EDTA-containing detection reagents halted the process. After one hour detection period, GraphPad Prism 5.0 was used to calculate the IC50 values. For each concentration, three separate trials were carried out.

[6] = molecular target: T2, EGFR^T790M (Homo sapiens, UniProt P00533, T790M); test: EGFR^T790M kinase inhibitory assay (HTRF); format: biochemical; conditions: ATP 1.65 µM, mean ± S.D of three experiments, read-out: EGFR^790M IC50
T2 construct: purchased Sigma
Method: as §1

[7] = molecular target: T3, EGFR (Homo sapiens, UniProt P00533); test: Western blotting, EGFR degradation in A549 cells; format: cell-based
T3 construct: EGFR degradation activities of compounds in A549 cells; endogenous in cells; host or cells: A549
Method: Following this, the target compounds 15–21 tethering various E3 ligases ligand were chosen as representative PROTACs for further degradation study based on temporal data.
Figure 4. (A) EGFR degradation activities of compounds in A549 cells. Cells were treated for 48 h with concentration of 0.1 and 1 µM. (B) Effects of concentration-dependent EGFR degradation by compounds 15–21 in A549 cell lines. Cells were treated for 48 h with a concentration from 1 nM to 10 µM. EGFR protein was examined by Western blotting analysis and EGFR degradation rate was quantified by densitometry and normalised to the corresponding density of β-actin protein (n ¼ 3). TEXT PRINTED IN THE PICTURE: (B) Comp 15: DC50 = 43.4 nm | (B) Comp 16: DC50= 32.9 nm DOUBTS OF THE COPYIST ABOUT THIS PICTURE: Comp 15, DC50: 43.4 is small blurred print; the 3 could be 8 and the digits are not certain / Comp 16, DC50: 32.9 is small blurred print; the 3 could be 8 and the 9 could be 8 or 0
We set nine concentration gradients ranging from […] to 10 µM to determine the degradation activity of all tested compounds and calculated the DC50 (concentration that caused deletion of 50% of EGFR) values.
(§2) At a concentration of 100 nM, the time-dependent degradation activities of compounds 15–21 were also examined (Figure 5(A)).
Figure 5. (A) EGFR time-dependent degradation by compound 16 in A549 cell lines. Cells were treated with100 nM of 15–21 for indicated time points. Western blotting was used to evaluate EGFR protein, and densitometry was used to measure EGFR degradation, which was adjusted to the density of β-actin protein (n ¼2). (B) Compounds 15 and 16 have EGFR degradation and phosphorylation inhibitory action in A549 cells. The cells were exposed to concentrations of 0.1, 0.3, and 1 µM. Erlotinib were utilised for comparison. TEXT PRINTED IN THE PICTURE: (A) Comp 15: Dmax = 85 % @ 96 h; Degradation: 9 (4 h; 100 nM); Degradation: 22 (8 h; 100 nM); Degradation: 42 (12 h; 100 nM); Degradation: 83 (24 h; 100 nM); Degradation: 84 (36 h; 100 nM); Degradation: 82 (48 h; 100 nM); Degradation: 82 (72 h; 100 nM); Degradation: 85 (96 h; 100 nM) | (A) Comp 16: Dmax = 96 % @72 h; Degradation: 32 (4 h; 100 nM); Degradation: 43 (8 h; 100 nM); Degradation: 67 (12 h; 100 nM); Degradation: 69 (24 h; 100 nM); Degradation: 78 (36 h; 100 nM); Degradation: 85 (48 h; 100 nM); Degradation: 96 (72 h; 100 nM); Degradation: 94 (96 h; 100 nM) DOUBTS OF THE COPYIST ABOUT THIS PICTURE: Comp 15, Dmax: print is blurred, 85 % @ 96 h is the best reading (85 or 86) / Comp 16, Dmax: print is small and blurred, 96 % @72 h is the best reading (96 or 95; the % sign is unclear) / Comp 15, Degradation row: print is blurred, 83/84/82/82/85 are best readings (3, 5, 8 are hard to tell apart) / Comp 16, Degradation row: print is blurred, 67/69/78/85/96/94 are best readings (5, 6, 8, 9 are hard to tell apart) / The Degradation rows are printed under the blot lanes with no unit. The value 0 under the 0.1 % DMSO control lane was not assigned to any compound.
Cells were seeded in 6-well plates at 1 × 10^6 per well, incubated at 37 °C with 5% CO2 for 24 h before drug exposure. Cells were treated with different concentrations of synthesised compounds for […], then collected and suspended in lysis buffer (Beyotime) and centrifuged for 20 min at 12000 rpm, later removed the insoluble material. […] The results were detected by an enhanced chemiluminescence system (Mill-pore). […]

[8] = system: EGFR phosphorylation; test: Western blotting, EGFR phosphorylation in A549 cells; format: cell-based, human; conditions: A549 cells, 0.1, 0.3 and 1 µM, erlotinib for comparison
Method: as §2
(§3) Figure 5. (A) EGFR time-dependent degradation by compound 16 in A549 cell lines. Cells were treated with100 nM of 15–21 for indicated time points. Western blotting was used to evaluate EGFR protein, and densitometry was used to measure EGFR degradation, which was adjusted to the density of β-actin protein (n ¼2). (B) Compounds 15 and 16 have EGFR degradation and phosphorylation inhibitory action in A549 cells. The cells were exposed to concentrations of 0.1, 0.3, and 1 µM. Erlotinib were utilised for comparison. […]
(§4) Cells were seeded in 6-well plates at 1 × 10^6 per well, incubated at 37 °C with 5% CO2 for 24 h before drug exposure. […] The results were detected by an enhanced chemiluminescence system (Mill-pore). […]

[9] = system: Akt phosphorylation; test: Western blotting, Akt phosphorylation in A549 cells; format: cell-based, human; conditions: A549 cells, 0.1, 0.3 and 1 µM, erlotinib for comparison
Method: as §2, §3, §4

T1 sequence (P00533 25-1210): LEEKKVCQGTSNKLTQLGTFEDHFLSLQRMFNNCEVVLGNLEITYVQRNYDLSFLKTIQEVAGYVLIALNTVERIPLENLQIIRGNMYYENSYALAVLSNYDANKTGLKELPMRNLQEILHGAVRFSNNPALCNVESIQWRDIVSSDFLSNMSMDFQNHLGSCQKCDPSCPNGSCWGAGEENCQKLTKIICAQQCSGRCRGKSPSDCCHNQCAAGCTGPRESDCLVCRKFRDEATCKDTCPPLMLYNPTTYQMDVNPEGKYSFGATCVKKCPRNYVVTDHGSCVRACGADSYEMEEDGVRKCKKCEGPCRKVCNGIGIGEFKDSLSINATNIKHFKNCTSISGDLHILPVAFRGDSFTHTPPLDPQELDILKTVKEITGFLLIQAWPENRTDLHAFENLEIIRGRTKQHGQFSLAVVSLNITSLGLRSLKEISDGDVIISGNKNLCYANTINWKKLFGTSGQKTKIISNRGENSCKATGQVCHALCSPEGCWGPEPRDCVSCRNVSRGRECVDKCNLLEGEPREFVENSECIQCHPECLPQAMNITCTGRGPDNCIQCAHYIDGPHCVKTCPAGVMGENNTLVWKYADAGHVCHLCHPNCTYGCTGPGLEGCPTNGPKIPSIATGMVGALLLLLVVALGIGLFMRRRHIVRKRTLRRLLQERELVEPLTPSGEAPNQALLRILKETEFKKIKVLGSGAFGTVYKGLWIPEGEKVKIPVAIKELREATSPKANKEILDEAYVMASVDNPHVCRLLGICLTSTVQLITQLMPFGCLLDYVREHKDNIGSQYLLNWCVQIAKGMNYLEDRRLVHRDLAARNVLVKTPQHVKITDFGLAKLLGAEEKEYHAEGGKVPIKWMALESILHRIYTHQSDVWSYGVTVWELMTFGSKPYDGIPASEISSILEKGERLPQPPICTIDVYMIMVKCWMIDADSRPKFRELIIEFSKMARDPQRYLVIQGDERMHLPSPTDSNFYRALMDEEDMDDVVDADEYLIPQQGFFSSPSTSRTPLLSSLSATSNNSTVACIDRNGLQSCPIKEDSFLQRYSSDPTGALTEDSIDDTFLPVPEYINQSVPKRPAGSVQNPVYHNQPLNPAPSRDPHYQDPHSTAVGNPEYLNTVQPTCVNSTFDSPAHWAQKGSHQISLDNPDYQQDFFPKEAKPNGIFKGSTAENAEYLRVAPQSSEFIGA
T2 sequence (P00533 25-1210 T790M): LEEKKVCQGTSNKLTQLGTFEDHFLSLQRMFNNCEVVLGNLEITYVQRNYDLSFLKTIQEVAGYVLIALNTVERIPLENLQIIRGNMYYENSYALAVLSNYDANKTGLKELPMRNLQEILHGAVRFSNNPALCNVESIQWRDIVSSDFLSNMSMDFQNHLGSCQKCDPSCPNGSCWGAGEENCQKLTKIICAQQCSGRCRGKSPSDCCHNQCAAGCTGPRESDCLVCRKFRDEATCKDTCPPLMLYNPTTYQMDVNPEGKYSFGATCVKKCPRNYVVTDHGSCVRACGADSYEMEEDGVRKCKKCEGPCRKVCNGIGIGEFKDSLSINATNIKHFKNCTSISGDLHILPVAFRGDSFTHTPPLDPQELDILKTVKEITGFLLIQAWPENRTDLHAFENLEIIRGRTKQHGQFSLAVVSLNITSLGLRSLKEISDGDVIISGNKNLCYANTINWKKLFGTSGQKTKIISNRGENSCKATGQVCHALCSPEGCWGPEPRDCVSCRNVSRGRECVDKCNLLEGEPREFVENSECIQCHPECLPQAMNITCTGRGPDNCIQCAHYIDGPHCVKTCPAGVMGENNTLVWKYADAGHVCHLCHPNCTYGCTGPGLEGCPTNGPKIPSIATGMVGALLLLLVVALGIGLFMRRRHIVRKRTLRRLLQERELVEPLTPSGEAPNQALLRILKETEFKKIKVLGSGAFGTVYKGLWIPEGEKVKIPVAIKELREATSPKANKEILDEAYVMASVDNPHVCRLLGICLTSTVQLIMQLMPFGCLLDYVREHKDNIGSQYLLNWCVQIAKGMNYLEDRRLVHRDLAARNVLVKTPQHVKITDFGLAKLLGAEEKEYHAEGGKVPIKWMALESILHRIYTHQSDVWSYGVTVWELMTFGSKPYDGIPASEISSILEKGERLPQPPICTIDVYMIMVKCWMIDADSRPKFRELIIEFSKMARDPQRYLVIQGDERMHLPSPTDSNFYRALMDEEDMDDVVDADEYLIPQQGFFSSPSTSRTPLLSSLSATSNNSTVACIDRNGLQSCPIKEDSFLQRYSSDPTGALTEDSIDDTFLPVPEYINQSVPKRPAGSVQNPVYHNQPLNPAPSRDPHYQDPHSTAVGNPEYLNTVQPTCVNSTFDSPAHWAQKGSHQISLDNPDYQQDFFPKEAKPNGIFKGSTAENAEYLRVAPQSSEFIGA
T3 sequence (P00533 25-1210): as the sequence (P00533 25-1210) above

| Structure (SMILES) | IC50 [1] [µM] | IC50 [2] [µM] | IC50 [3] [µM] | IC50 [4] [µM] | IC50 [5] [µM] | IC50 [6] [µM] | Dmax at 0.1 µM ([7]; A549, A549 cells, 100 nM, time course, reached at 96 h (15) and 72 h (16), read-out: Dmax, maximum EGFR degradation rate) [%] | DC50 ([7]; A549 cells, 48 h, Western blotting densitometry, read-out: DC50 (concentration that caused deletion of 50% of EGFR)) [µM] | inhibition of EGFR phosphorylation, in words [8] | inhibition of Akt phosphorylation, in words [9] |
| --- | --- | --- | --- | --- | --- | --- | --- | --- | --- | --- |
| C#Cc1cccc(Nc2ncnc3cc(OCCOC)c(OCCOC)cc23)c1 [Erlotinib, reference compound] | 19.3 ± 1.85 | 21.8 ± 1.85 | 16.8 ± 1.65 | 13.1 ± 1.28 | – | – | – | – | – | – |
| O=C(CSc1nc2ccccc2o1)NNCCOCCOCC(=O)Nc1cccc2c1C(=O)N(C1CCC(=O)NC1=O)C2=O (centres unmarked) [Compound 20, 2-(2-(2-(2-(2-(benzo[d]oxazol-2-ylthio)acetyl)hydrazinyl)ethoxy)ethoxy)-N-(2-(2,6-dioxopiperidin-3-yl)-1,3-dioxoisoindolin-4-yl)acetamide] | 8.27 ± 0.25 | 14.3 ± 0.69 | 12.3 ± 0.71 | 9.26 ± 0.39 | 0.77 ± 0.05 | 16.3 ± 0.69 | – | – | – | – |
| O=C1CCC(N2C(=O)c3cccc(NC(=O)COCCOCCNNC(=O)c4ccc(N=C5C(=O)Nc6ccccc65)cc4)c3C2=O)C(=O)N1 (centres unmarked) [Compound 18, N-(2-(2,6-dioxopiperidin-3-yl)-1,3-dioxoisoindolin-4-yl)-2-(2-(2-(2-(4-((2-oxoindolin-3-ylidene)amino)benzoyl)hydrazineyl)ethoxy)ethoxy)acetamide] | 4.67 ± 0.13 | 8.26 ± 0.25 | 6.79 ± 0.27 | 6.26 ± 0.56 | 0.65 ± 0.03 | 8.16 ± 0.28 | – | – | – | – |
| O=C1CCC(N2C(=O)c3cccc(NC(=O)COCCOCCOCCNC(=O)c4nc5ccccc5[nH]c4=O)c3C2=O)C(=O)N1 (centres unmarked) [Compound 17, N-(2-(2-(2-(2-(2-(2,6-dioxopiperidin-3-yl)-1,3-dioxoisoindolin-4-ylamino)-2-oxoethoxy)ethoxy)ethoxy)ethyl)-3-oxo-3,4-dihydroquinoxaline-2-carboxamide] | 3.19 ± 0.19 | 7.96 ± 0.35 | 6.29 ± 0.35 | 4.09 ± 0.11 | 0.19 ± 0.09 | 6.26 ± 0.32 | – | – | – | – |
| COc1cccc2c1C(=O)c1c(O)c3c(c(O)c1C2=O)C[C@@](O)(C(=O)CO)C[C@@H]3O[C@H]1C[C@H](N)[C@H](O)[C@H](C)O1 [Doxorubicin, reference compound] | – | 7.89 ± 0.55 | 5.52 ± 0.25 | 6.22 ± 0.45 | – | – | – | – | – | – |
| CN1C(=O)C(=Nc2ccc(C(=O)NNCCOCCOCC(=O)Nc3cccc4c3C(=O)N(C3CCC(=O)NC3=O)C4=O)cc2)c2ccccc21 (centres unmarked) [Compound 19, N-(2-(2,6-dioxopiperidin-3-yl)-1,3-dioxoisoindolin-4-yl)-2-(2-(2-(2-(4-(1-methyl-2-oxoindolin-3-ylideneamino)benzoyl)hydrazinyl)ethoxy)ethoxy)acetamide] | 6.54 ± 0.32 | 16.3 ± 0.71 | 9.12 ± 0.38 | 8.26 ± 0.36 | 3.02 ± 0.12 | 14.1 ± 0.51 | – | – | – | – |
| O=C(CSc1nc2ccccc2s1)NNCCOCCOCC(=O)Nc1cccc2c1C(=O)N(C1CCC(=O)NC1=O)C2=O (centres unmarked) [Compound 21, 2-(2-(2-(2-(2-(benzo[d]thiazol-2-ylthio)acetyl)hydrazinyl)ethoxy)ethoxy)-N-(2-(2,6-dioxopiperidin-3-yl)-1,3-dioxoisoindolin-4-yl)acetamide] | 7.27 ± 0.16 | 16.3 ± 0.71 | 13 ± 0.52 | 9.86 ± 0.37 | 2.27 ± 0.16 | 15.3 ± 0.61 | – | – | – | – |
| O=C1CCC(N2C(=O)c3cccc(NC(=O)COCCOCCn4nc5[nH]c6ccccc6nc-5c4=O)c3C2=O)C(=O)N1 (centres unmarked) [Compound 15, N-(2-(2,6-dioxopiperidin-3-yl)-1,3-dioxoisoindolin-4-yl)-2-(2-(2-(3-oxo-3,9-dihydro-2H-pyrazolo[3,4-b]quinoxalin-2-yl)ethoxy)ethoxy)acetamide] | 3.09 ± 0.15 | 7.87 ± 0.31 | 6.19 ± 0.27 | 3.89 ± 0.05 | 0.22 ± 0.05 | 6.89 ± 0.31 | 86 | 0.0434 | effectively displayed inhibitory activity | effectively displayed inhibitory activity; also recorded: comparable to erlotinib |
